US8088936B2, “Leukotriene B4 inhibitors” (Hoffman-La Roche Inc., priority 2009, dated 2012)

System: Human leukemia HL-60 cells endogenously expressing BLT1 and BLT2 receptors
Assay: Ca2+ flux assay for LTB4 antagonist assay (HL-60 FLIPR)
Assay type: cell-based
Details: retinoic acid induced HL-60 cells, inhibition of LTB4-induced Ca2+ flux, 30 min preincubation; read-out: LTB4 antagonism (HL-60 FLIPR)
Method: Assay of Compounds for Inhibition of LTB4 Activity
Ca^2+Flux Assay for LTB4 Antagonist Assay
Human leukemia HL-60 cells endogenously expressing BLT1 and BLT2 receptors were cultured in RPMI-1640 medium supplemented with 20% fetal bovine serum, 2 mM glutamine, 100 U/ml penicillin and 100 ug/ml streptomycin.
Seventy two hours prior to experiment cells are counted using ViaCount reagent, centrifuged and resuspended at 2.0×10^5 cells/ml density with the complete growth media containing 1 μM Retinoic Acid (Sigma).
On a day of the experiment loading buffer (Calcium-3 Assay Kit, Molecular Devices) was prepared by dissolving the contents of one vial (Express Kit) into 500 ml Hank's Balanced Salt Solution containing 20 mM HEPES and 5 mM probenecid. Equal volume of the loading buffer was mixed with the replacement buffer (Hank's Balanced Salt Solution containing 20 mM HEPES, 0.05% BSA and 5 mM probenecid). Retinoic Acid induced HL-60 cells were counted using ViaCount reagent, centrifuged and resuspended at 2.0×10^6 cells/ml density with the loading buffer/replacement buffer, dispensed into 384 well black/clear microplates (Falcon) (25 μl/well) and placed in a 37° C./5% CO2 incubator for 1 hour.
During the incubation, test compounds were prepared at 6× the desired concentration in HBSS/20 mM HEPES/0.05% BSA as well as LTB4 (Biomol) was prepared at 2.2× concentration in HBSS/20 mM HEPES/0.5% BSA buffer.
After the incubation, both the cell and compound plates were brought to the FLIPR and 5 μl of the diluted compounds were transferred to the cell plates by the FLIPR. Plates were then incubated for 30 min at room temperature. After the ½ hour incubation, plates were returned to the FLIPR and 25 μl of 2.2×LTB4 was added to the cell plates. During the assay, fluorescence readings were taken simultaneously from all 384 wells of the cell plate every 1.5 seconds. Five readings were taken to establish a stable baseline, then 25 μl (LTB4) of sample was rapidly and simultaneously added to each well of the cell plate. The fluorescence was continuously monitored before, during and after sample addition for a total elapsed time of 100 seconds. Responses (increase in peak fluorescence) in each well following agonist addition was determined. The initial fluorescence reading from each well, prior to ligand stimulation, was used a zero baseline value for the data from that well. The responses are expressed as % inhibition of the neutral control (neural control: wells that received buffer plus DMSO but no test compound).

IC50 [nM]	SMILES
2.22	CN(C)Cc1cc(OCCCCCCc2cccc(OCCCC(=O)O)c2CCC(=O)O)cc(-c2ccc(S(C)(=O)=O)cc2)c1 [Example 38, 4-{2-(2-Carboxy-ethyl)-3-[6-(5-dimethylaminomethyl-4′-methanesulfonyl-biphenyl-3-yloxy)-hexyl]-phenoxy}-butyric acid]
70.8	CN(C)Cc1cc(OCCCCCCc2cccc(OCCCC(=O)O)c2CCC(=O)O)cc(-c2cccc(S(C)(=O)=O)c2)c1 [Example 39, 4-{2-(2-Carboxy-ethyl)-3-[6-(5-dimethylaminomethyl-3′-methanesulfonyl-biphenyl-3-yloxy)-hexyl]-phenoxy}-butyric acid]
0.42	CN(C)Cc1cc(OCCCCCCc2cccc(OCCCC(=O)O)c2CCC(=O)O)cc(-c2ccncc2)c1 [Example 40, 4-{2-(2-Carboxy-ethyl)-3-[6-(3-dimethylaminomethyl-5-pyridin-4-yl-phenoxy)-hexyl]-phenoxy}-butyric acid]
15.2	N#CCc1cc(OCCCCCCc2cccc(OCCCC(=O)O)c2CCC(=O)O)cc(-c2ccsc2)c1 [Example 41, 4-{2-(2-Carboxy-ethyl)-3-[6-(3-cyanomethyl-5-thiophen-3-yl-phenoxy)-hexyl]-phenoxy}-butyric acid]
23	N#CCc1cc(OCCCCCCc2cccc(OCCCC(=O)O)c2CCC(=O)O)cc(-c2ccccc2)c1 [Example 42, 4-{2-(2-Carboxy-ethyl)-3-[6-(5-cyanomethyl-biphenyl-3-yloxy)-hexyl]-phenoxy}-butyric acid]
0.22	CCOc1cc(OCCCCCCc2cccc(OCCCC(=O)O)c2CCC(=O)O)cc(-c2ccc3c(c2)OCO3)c1 [Example 43, 4-[3-[6-(3-Benzo[1,3]dioxol-5-yl-5-ethoxy-phenoxy)-hexyl]-2-(2-carboxy-ethyl)-phenoxy]-butyric acid]
1.26	CCOc1cc(OCCCCCCc2cccc(OCCCC(=O)O)c2CCC(=O)O)cc(-c2ccccc2)c1 [Example 44, 4-[2-(2-Carboxy-ethyl)-3-[6-(5-ethoxy-biphenyl-3-yloxy)-hexyl]-phenoxy]-butyric acid]
0.4	CCOc1cc(OCCCCCCc2cccc(OCCCC(=O)O)c2CCC(=O)O)cc(-c2ccsc2)c1 [Example 45, 4-[2-(2-Carboxy-ethyl)-3-[6-(3-ethoxy-5-thiophen-3-yl-phenoxy)-hexyl]-phenoxy]-butyric acid]
1.11	CCOc1cc(OCCCCCCc2cccc(OCCCC(=O)O)c2CCC(=O)O)cc(-c2ccc3c(c2)OCCO3)c1 [Example 46, 4-[2-(2-Carboxy-ethyl)-3-{6-[3-(2,3-dihydro-benzo[1,4]dioxin-6-yl)-5-ethoxy-phenoxy]-hexyl}-phenoxy]-butyric acid]
2.32	CCOc1cc(OCCCCCCc2cccc(OCCCC(=O)O)c2CCC(=O)O)cc(-c2cccc(F)c2)c1 [Example 47, 4-[2-(2-Carboxy-ethyl)-3-[6-(5-ethoxy-3′-fluoro-biphenyl-3-yloxy)-hexyl]-phenoxy]-butyric acid]
5.2	CCOc1cc(OCCCCCCc2cccc(OCCCC(=O)O)c2CCC(=O)O)cc(-c2ccc(F)cc2)c1 [Example 48]
6.05	CCOc1cc(OCCCCCCc2cccc(OCCCC(=O)O)c2CCC(=O)O)cc(-c2ccc(Cl)cc2)c1 [Example 49, 4-[2-(2-Carboxy-ethyl)-3-[6-(4′-chloro-5-ethoxy-biphenyl-3-yloxy)-hexyl]-phenoxy]-butyric acid]
8.27	CCOc1cc(OCCCCCCc2cccc(OCCCC(=O)O)c2CCC(=O)O)cc(-c2ccc(F)c(F)c2)c1 [Example 50, 4-[2-(2-Carboxy-ethyl)-3-[6-(3′,4′-difluoro-5-ethoxy-biphenyl-3-yloxy)-hexyl]-phenoxy]-butyric acid]
2.1	CCOc1cc(OCCCCCCc2cccc(OCCCC(=O)O)c2CCC(=O)O)cc(-c2ccc(S(C)(=O)=O)cc2)c1 [Example 51, 4-[2-(2-Carboxy-ethyl)-3-[6-(5-ethoxy-4′-methanesulfonyl-biphenyl-3-yloxy)-hexyl]-phenoxy]-butyric acid]
6.94	CCOc1cc(OCCCCCCc2cccc(OCCCC(=O)O)c2CCC(=O)O)cc(-c2ccnc(Cl)c2)c1 [Example 52, 4-[2-(2-Carboxy-ethyl)-3-[6-[3-(2-chloro-pyridin-4-yl)-5-ethoxy-phenoxy]-hexyl]-phenoxy]-butyric acid]
79.3	CCOc1cc(OCCCCCCc2cccc(OCCCC(=O)O)c2CCC(=O)O)cc(-c2cncnc2)c1 [Example 53, 4-[2-(2-Carboxy-ethyl)-3-[6-(3-ethoxy-5-pyrimidin-5-yl-phenoxy)-hexyl]-phenoxy]-butyric acid]
34.2	CCOc1cc(OCCCCCCc2cccc(OCCCC(=O)O)c2CCC(=O)O)cc(-c2ccc3[nH]ccc3c2)c1 [Example 54, 4-[2-(2-Carboxy-ethyl)-3-{6-[3-ethoxy-5-(1H-indol-5-yl)-phenoxy]-hexyl}-phenoxy]-butyric acid]
6.69	CCOc1cc(OCCCCCCc2cccc(OCCCC(=O)O)c2CCC(=O)O)cc(-c2ccc3cc[nH]c3c2)c1 [Example 55, 4-[2-(2-Carboxy-ethyl)-3-{6-[3-ethoxy-5-(1H-indol-6-yl)-phenoxy]-hexyl}-phenoxy]-butyric acid]
0.32	CCOc1cc(OCCCCCCc2cccc(OCCCC(=O)O)c2CCC(=O)O)cc(-c2ccc3scnc3c2)c1 [Example 56, 4-[3-{6-[3-Benzothiazol-5-yl-5-ethoxy-phenoxy]-hexyl}-2-(2-carboxy-ethyl)-phenoxy]-butyric acid]
1.2	CCOc1cc(OCCCCCCc2cccc(OCCCC(=O)O)c2CCC(=O)O)cc(-c2ccc3c(c2)OC(F)(F)O3)c1 [Example 57, 4-(2-(2-Carboxy-ethyl)-3-{6-[3-(2,2-difluoro-benzo[1,3]dioxol-5-yl)-5-ethoxy-phenoxy]-hexyl}-phenoxy)-butyric acid]
74.6	O=C(O)CCCOc1cccc(CCCCCCOc2cc(OCc3ccccc3)cc(-c3ccccc3)c2)c1CCC(=O)O [Example 58, 4-[3-[6-(5-Benzyloxy-biphenyl-3-yloxy)-hexyl]-2-(2-carboxy-ethyl)-phenoxy]-butyric acid]
132	O=C(O)CCCOc1cccc(CCCCCCOc2cc(OCc3ccccc3)cc(-c3cccc(F)c3)c2)c1CCC(=O)O [Example 59, 4-[3-[6-(5-Benzyloxy-3′-fluoro-biphenyl-3-yloxy)-hexyl]-2-(2-carboxy-ethyl)-phenoxy]-butyric acid]
4.59	O=C(O)CCCOc1cccc(CCCCCCOc2cc(OCc3ccccc3)cc(-c3ccc4c(c3)OCO4)c2)c1CCC(=O)O [Example 60, 4-[3-[6-(3-Benzo[1,3]dioxol-5-yl-5-benzyloxy-phenoxy)-hexyl]-2-(2-carboxy-ethyl)-phenoxy]-butyric acid]
77.7	O=C(O)CCCOc1cccc(CCCCCCOc2cc(OCc3ccccc3)cc(-c3ccsc3)c2)c1CCC(=O)O [Example 61, 4-[3-[6-(3-Benzyloxy-5-thiophen-3-yl-phenoxy)-hexyl]-2-(2-carboxy-ethyl)-phenoxy]-butyric acid]
7.98	O=C(O)CCCOc1cccc(CCCCCCOc2cc(OCC3CCCC3)cc(-c3ccsc3)c2)c1CCC(=O)O [Example 62, 4-[2-(2-Carboxy-ethyl)-3-[6-(3-cyclopentylmethoxy-5-thiophen-3-yl-phenoxy)-hexyl]-phenoxy]-butyric acid]
32.5	O=C(O)CCCOc1cccc(CCCCCCOc2cc(OCC3CCCC3)cc(-c3cccc(F)c3)c2)c1CCC(=O)O [Example 63, 4-[2-(2-Carboxy-ethyl)-3-[6-(5-cyclopentylmethoxy-3′-fluoro-biphenyl-3-yloxy)-hexyl]-phenoxy]-butyric acid]
2.95	CC(=O)c1cc(OCCCCCCc2cccc(OCCCC(=O)O)c2CCC(=O)O)cc(-c2ccc3c(c2)OCO3)c1 [Example 64, 4-[3-[6-(3-Acetyl-5-benzo[1,3]dioxol-5-yl-phenoxy)-hexyl]-2-(2-carboxy-ethyl)-phenoxy]-butyric acid]
2.07	CC(=O)c1cc(OCCCCCCc2cccc(OCCCC(=O)O)c2CCC(=O)O)cc(-c2ccc3c(c2)OCCO3)c1 [Example 65]
3.33	CC(=O)c1cc(OCCCCCCc2cccc(OCCCC(=O)O)c2CCC(=O)O)cc(-c2ccccc2)c1 [Example 66, 4-[3-[6-(5-Acetyl-biphenyl-3-yloxy)-hexyl]-2-(2-carboxy-ethyl)-phenoxy]-butyric acid]
5.1	CC(=O)c1cc(OCCCCCCc2cccc(OCCCC(=O)O)c2CCC(=O)O)cc(-c2cccc(F)c2)c1 [Example 67, 4-[3-[6-(5-Acetyl-3′-fluoro-biphenyl-3-yloxy)-hexyl]-2-(2-carboxy-ethyl)-phenoxy]-butyric acid]
